{"source": "patent US20230339886A1", "about": "(University of Florida Research Foundation, Incorporated, priority 2020, published 2023)", "data": [{"target": "T1, REV-ERBα LBD (human; residues 281-614 Δ324-422) (Homo sapiens, UniProt P20393, DEL324-422)", "T1 construct": "6×Histag-REV-ERBα LBD (human; residues 281-614 Δ324-422); made in house; host or cells: Escherichia coli", "T1 sequence (P20393 with tags, fused parts or gaps DEL324-422)": "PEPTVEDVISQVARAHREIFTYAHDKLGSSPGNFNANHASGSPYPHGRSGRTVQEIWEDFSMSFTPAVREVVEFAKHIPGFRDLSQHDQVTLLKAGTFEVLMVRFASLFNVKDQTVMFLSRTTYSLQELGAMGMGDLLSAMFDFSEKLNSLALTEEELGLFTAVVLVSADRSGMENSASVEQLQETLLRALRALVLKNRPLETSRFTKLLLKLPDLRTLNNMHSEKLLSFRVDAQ", "T1 sequence (Q9Y618 2335-2356 partner limits assumed)": "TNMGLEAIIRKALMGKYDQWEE", "experiment": "TR-FRET corepressor interaction assay (REV-ERBα LBD, FITC-SMRT peptide)", "format": "biochemical", "conditions": "FITC-SMRT peptide, read-out: REVERBα agonism (EC50 class, FRET assay)", "procedure": "(§1) TR-FRET corepressor interaction assay. The time-resolved fluorescence resonance energy transfer (TR-FRET) assay was performed in black low-volume 384-well plates (Greiner). […] Ligand stocks were prepared via serial dilution in DMSO, added to wells in triplicate, and plates were incubated at 4° C. for 2 h and read using a BioTek Synergy Neo multimode plate reader. The Tb donor was excited at 340 nm; its fluorescence emission was monitored at 495 nm, and the acceptor FITC emission was measured at 520 nm; and the TR-FRET ratio was calculated as the signal at 520 nm divided by the signal at 495 nm. Data were plotted using GraphPad Prism as TR-FRET ratio vs. ligand concentration and fit to sigmoidal dose response curve equation.", "units": {"EC50": "nM"}, "values": [{"smiles": "NC(=O)c1cccc(F)c1-c1ccc2c([C@H](NS(=O)(=O)C3CCC3)C(F)(F)F)cn(C3CCC3)c2c1", "note": "[Example 439, (S)-2-(3-(1-(cyclobutanesulfonamido)-2,2,2-trifluoroethyl)-1-cyclobutyl-1H-indol-6-yl)-3-fluorobenzamide]", "EC50": "500 to 3000"}, {"smiles": "COC(C)(C)Cn1cc([C@H](NS(=O)(=O)C2CC2)C(F)(F)F)c2cc(F)c(-c3ccccc3C(F)(F)F)cc21", "note": "[Example 475, N-[(1S)-2,2,2-trifluoro-1-[5-fluoro-1-(2-methoxy-2-methyl-propyl)-6-[2-(trifluoromethyl)phenyl]indol-3-yl]ethyl]cyclopropanesulfonamide]", "EC50": "< 500"}, {"smiles": "CCS(=O)(=O)NCCn1cc(CC(C)(C)C)c2cc(-c3ccc(C(F)(F)F)cc3C(F)(F)F)ccc21", "note": "[Example 502, N-(2-(5-(2,4-bis(trifluoromethyl)phenyl)-3-neopentyl-1H-indol-1-yl)ethyl)ethanesulfonamide]", "EC50": "< 500"}, {"smiles": "CC(C)(C)Cn1cc([C@H](NS(=O)(=O)C2COC2)C(F)(F)F)c2cc(F)c(-c3ccccc3C(F)(F)F)cc21", "note": "[Example 459, (S)—N-(2,2,2-trifluoro-1-(5-fluoro-1-neopentyl-6-(2-(trifluoromethyl)phenyl)-1H-indol-3-yl)ethyl)oxetane-3-sulfonamide]", "EC50": "< 500"}, {"smiles": "CC(C)(C)Cn1cc([C@H](NS(=O)(=O)C2CC(O)C2)C(F)(F)F)c2ccc(-c3ccccc3C(F)(F)F)cc21", "note": "(stereo partly drawn) [Example 522, (S)-3-hydroxy-N-(2,2,2-trifluoro-1-(1-neopentyl-6-(2-(trifluoromethyl)phenyl)-1H-indol-3-yl)ethyl)cyclobutane-1-sulfonamide]", "EC50": "500 to 3000"}, {"smiles": "CC(C)(C)Cn1cc([C@H](NS(=O)(=O)C2CCC2)C(F)(F)F)c2cc(F)c(-c3c(F)cccc3C(F)(F)F)cc21", "note": "[Example 511, N-((1S)-2,2,2-trifluoro-1-(5-fluoro-6-(2-fluoro-6-(trifluoromethyl)phenyl)-1-neopentyl-1H-indol-3-yl)ethyl)cyclobutanesulfonamide]", "EC50": "500 to 3000"}]}, {"target": "T1, REV-ERBα LBD (human; residues 281-614 Δ324-422)", "experiment": "TR-FRET corepressor interaction assay (REV-ERBα LBD, FITC-SMRT peptide)", "format": "biochemical", "conditions": "Table 2, read-out: REVERBα agonism (EC50 class, FRET assay)", "procedure": "as §1", "units": {"EC50": "nM"}, "values": [{"smiles": "CC(C)(C)Cn1cc([C@H](NS(=O)(=O)C2CC2)C(F)(F)F)c2cc(F)c(-c3ccncc3Cl)cc21", "note": "[Example 361, (S)—N-(1-(6-(3-chloropyridin-4-yl)-5-fluoro-1-neopentyl-1H-indol-3-yl)-2,2,2-trifluoroethyl)cyclopropanesulfonamide]", "EC50": "< 500"}, {"smiles": "CN(C)S(=O)(=O)NCCn1cc(CC(C)(C)C)c2cc(-c3ccccc3Cl)ccc21", "note": "[Example 190, N-{2-[5-(2-chlorophenyl)-3-(2,2-dimethylpropyl)-1H-indol-1-yl]ethyl}-N,N-dimethyl-sulfuric diamide]", "EC50": "< 500"}, {"smiles": "CC(C)Cn1cc(CCNS(=O)(=O)N(C)C)c2ccc(Cl)cc21", "note": "[Example 109, ({2-[6-chloro-1-(2-methylpropyl)-1H-indol-3-yl]ethyl}sulfamoyl)dimethylamine]", "EC50": "< 500"}, {"smiles": "CN(C)S(=O)(=O)NCCn1cc(CC(F)(F)C(F)(F)F)c2cc(Cl)ccc21", "note": "[Example 153, N-{2-[5-chloro-3-(2,2,3,3,3-pentafluoropropyl)-1H-indol-1-yl]ethyl}-N,N-dimethylsulfuric diamide]", "EC50": "500 to 3000"}, {"smiles": "CC(C)Cn1cc(-c2cccc(CNS(=O)(=O)C(C)C)c2)c2ccc(-c3ccccc3)cc21", "note": "[Example 86, N-(3-(1-isobutyl-6-phenyl-1H-indol-3-yl)benzyl)propane-2-sulfonamide]", "EC50": "500 to 3000"}, {"smiles": "CC(C)Cn1cc(CCNS(=O)(=O)C(C)C)c2cc(F)c(-c3ccccc3)cc21", "note": "[Compound 261]", "EC50": "< 500"}, {"smiles": "CN(C)S(=O)(=O)NCCc1cn(C)c2cc(-c3ccncc3)ccc12", "note": "[Example 128, N′-{2-[6-(pyridin-4-yl)-1-methyl-1H-indol-3-yl]ethyl}-N,N-dimethylsulfuric diamide]", "EC50": "500 to 3000"}, {"smiles": "CC(C)(C)Cn1cc(CCNS(=O)(=O)C2CC2)c2cc(F)c(-c3ccncc3Cl)cc21", "note": "[Compound 288]", "EC50": "< 500"}, {"smiles": "COc1ccccc1-c1ccc2c(c1)c(CC(C)(C)C)cn2CCNS(=O)(=O)C1CC1", "note": "[Example 303, N-(2-(5-(2-methoxyphenyl)-3-neopentyl-1H-indol-1-yl)ethyl)cyclopropane-sulfonamide]", "EC50": "< 500"}, {"smiles": "CNS(=O)(=O)c1ccccc1-c1ccc2c(CCNS(=O)(=O)N(C)C)cn(CC(C)C)c2c1", "note": "[Example 72, N′-{2-[6-(2-N′-methylsulfonamidophenyl)-1-(2-methylpropyl)-1H-indol-3-yl]ethyl}-N,N-dimethylsulfuric diamide]", "EC50": "500 to 3000"}, {"smiles": "CC(C)Cn1cc(CCNS(C)(=O)=O)c2ccc(-c3ccncc3)cc21", "note": "[Compound 3]", "EC50": "500 to 3000"}, {"smiles": "CC(C)Cn1cc(CCNS(=O)(=O)N(C)C)c2ccc(-c3ccccc3-c3ccccc3)cc21", "note": "[Example 74, N-{2-[6-[(1,1-diphenyl)-2yl]-1-(2-methylpropyl)-1H-indol-3-yl]ethyl}-N,N-dimethylsulfuric diamide]", "EC50": "> 3000"}, {"smiles": "CC(C)Cn1cc(CCNS(=O)(=O)N(C)C)c2ccc(O)cc21", "note": "[Example 116, N-{2-[6-hydroxy-1-(2-methylpropyl)-1H-indol-3-yl]ethyl}-N,N-dimethylsulfuric diamide]", "EC50": "> 3000"}, {"smiles": "CC(C)Cn1cc(CC(C)N(C)S(=O)(=O)C(C)C)c2ccc(-c3ccncc3)cc21", "note": "(stereo not drawn) [Compound 276]", "EC50": "< 500"}, {"smiles": "CC(C)(C)Cn1cc([C@H](NS(=O)(=O)C2CC2)C(F)(F)F)c2ccc(-c3ccc(F)c(C#N)c3)cc21", "note": "[Example 387, (S)—N-(1-(6-(3-cyano-4-fluorophenyl)-1-neopentyl-1H-indol-3-yl)-2,2,2-trifluoroethyl)cyclopropanesulfonamide]", "EC50": "500 to 3000"}, {"smiles": "CC(C)Cn1cc(CCNS(=O)(=O)N(C)C)c2ccc(-c3ccncc3C(F)(F)F)cc21", "note": "[Compound 206, dimethyl({2-[1-(2-methylpropyl)-6-[3-(trifluoromethyl)pyridin-4-yl]-1H-indol-3-yl]ethyl}sulfamoyl)amine]", "EC50": "< 500"}, {"smiles": "CC(C)Cn1cc(CCNS(=O)(=O)N(C)C)c2ccc(-c3ccoc3)cc21", "note": "[Compound 66, ({2-[6-(furan-3-yl)-1-(2-methylpropyl)-1H-indol-3-yl]ethyl}sulfamoyl)dimethylamine]", "EC50": "< 500"}, {"smiles": "CC(C)Cn1cc(CCNS(=O)(=O)N(C)C)c2ccc(Nc3ccnn3C)cc21", "note": "[Compound 69, 3-{2-[(dimethylsulfamoyl)amino]ethyl}-N-(1-methyl-1H-pyrazol-5-yl)-1-(2-methylpropyl)-1H-indol-6-amine]", "EC50": "> 3000"}, {"smiles": "CN(C)S(=O)(=O)NCCc1cn(Cc2ccc(F)cc2F)c2cc(-c3ccncc3)ccc12", "note": "[Example 149, N-{2-[6-(pyridin-4-yl)-1-(2,4-difluorobenzyl)-1H-indol-3-yl]ethyl}-N,N-dimethylsulfuric diamide]", "EC50": "500 to 3000"}, {"smiles": "CC(C)Cn1cc(CCNS(=O)(=O)N(C)C)c2cc(-c3ccncc3)ccc21", "note": "[Compound 232]", "EC50": "> 3000"}, {"smiles": "CC(C)(C)Cc1cn(CCNS(=O)(=O)C2CC2)c2ccc(-c3cccnc3)cc12", "note": "[Example 305, N-(2-(3-neopentyl-5-(pyridin-3-yl)-1H-indol-1-yl)ethyl)cyclopropanesulfonamide]", "EC50": "500 to 3000"}, {"smiles": "CC(C)(C)Cn1cc([C@H](NS(=O)(=O)C2CCC2)C(F)(F)F)c2ccc(-c3c(F)cccc3Cl)cc21", "note": "[Example 411, (S)—N-(1-(6-(2-chloro-6-fluorophenyl)-1-neopentyl-1H-indol-3-yl)-2,2,2-trifluoroethyl)cyclobutanesulfonamide]", "EC50": "< 500"}, {"smiles": "CC(NS(=O)(=O)N(C)C)c1cn(C(=O)C(C)(C)C)c2cc(-c3ccncc3)ccc12", "note": "(stereo not drawn) [Example 197, 1-(3-{1-[(dimethylsulfamoyl)amino]ethyl}-6-(pyridin-4-yl)-1H-indol-1-yl)-2,2-dimethylpropan-1-one]", "EC50": "< 500"}, {"smiles": "CC(C)(C)Cn1cc(CCNS(=O)(=O)C2CC2)c2ccc(-c3cccc(F)c3C(F)(F)F)cc21", "note": "[Example 393, N-(2-(6-(3-fluoro-2-(trifluoromethyl)phenyl)-1-neopentyl-1H-indol-3-yl)ethyl)cyclopropanesulfonamide]", "EC50": "500 to 3000"}, {"smiles": "CC(C)Cn1cc(CCNS(=O)(=O)N(C)C)c2ccc(OC(C)(C)C)cc21", "note": "[Example 119, N′-{2-[6-tert-butoxy-1-(2-methylpropyl)-1H-indol-3-yl]ethyl}-N,N-dimethylsulfuric diamide]", "EC50": "500 to 3000"}, {"smiles": "CC(C)(C)Cn1cc([C@H](NS(=O)(=O)C2CC2)C(F)(F)F)c2ccc(-c3ccc(F)cc3C(F)(F)F)cc21", "note": "[Example 367, (S)—N-(2,2,2-trifluoro-1-(6-(4-fluoro-2-(trifluoromethyl)phenyl)-1-neopentyl-1H-indol-3-yl)ethyl)cyclopropanesulfonamide]", "EC50": "< 500"}, {"smiles": "Cc1noc(C)c1-c1ccc2c(CCNS(=O)(=O)N(C)C)cn(CC(C)C)c2c1", "note": "[Compound 64, ({2-[6-(3,5-dimethyl-1,2-oxazol-4-yl)-1-(2-methylpropyl)-1H-indol-3-yl]ethyl}sulfamoyl)dimethylamine]", "EC50": "> 3000"}, {"smiles": "Cc1cc2c(cc1F)c(CCNS(=O)(=O)N(C)C)cn2CC(C)C", "note": "[Example 170, ({2-[5-fluoro-6-methyl-1-(2-methylpropyl)-1H-indol-3-yl]ethyl}sulfamoyl)dimethylamine]", "EC50": "< 500"}, {"smiles": "CC(C)Cn1cc(C(C)CNS(=O)(=O)C(C)C)c2ccc(-c3ccccc3)cc21", "note": "(stereo not drawn) [Compound 254]", "EC50": "> 3000"}, {"smiles": "Cc1c(-c2ccccc2C(F)(F)F)ccc2c([C@H](NS(=O)(=O)C3CC3)C(F)(F)F)cn(CC(C)(C)C)c12", "note": "[Example 353, (S)—N-(2,2,2-trifluoro-1-(7-methyl-1-neopentyl-6-(2-(trifluoromethyl)phenyl)-1H-indol-3-yl)ethyl)cyclopropanesulfonamide]", "EC50": "< 500"}]}]}
